Experimental data taken from ChEMBL document CHEMBL1201862, “PubChem BioAssay data set” (2004).
The source made the active and inactive calls.

Columns and labels:
Format in all cases: functional
[1] = target: T1, Sentrin-specific protease 8 (Homo sapiens, UniProt Q96LD8);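 note: luminescence read-out of SENP8 inhibition, dose-response confirmation following an ultra-high-throughput screen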
T1 sequence (Q96LD8 whole entry): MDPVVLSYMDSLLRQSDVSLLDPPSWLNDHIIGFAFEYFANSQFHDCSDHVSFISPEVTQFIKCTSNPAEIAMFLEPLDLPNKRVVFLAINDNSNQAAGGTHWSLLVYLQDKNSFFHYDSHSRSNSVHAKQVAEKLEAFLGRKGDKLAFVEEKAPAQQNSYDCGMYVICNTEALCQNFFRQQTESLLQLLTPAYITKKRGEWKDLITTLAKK

[2] = target: T2, Sentrin-specific protease 6 (Homo sapiens, UniProt Q9GZR1);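 note: Luminescence-based dose-response confirmatory assay of SENP6 inhibition, following up an ultra-high-throughput screen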
T2 sequence (Q9GZR1 whole entry): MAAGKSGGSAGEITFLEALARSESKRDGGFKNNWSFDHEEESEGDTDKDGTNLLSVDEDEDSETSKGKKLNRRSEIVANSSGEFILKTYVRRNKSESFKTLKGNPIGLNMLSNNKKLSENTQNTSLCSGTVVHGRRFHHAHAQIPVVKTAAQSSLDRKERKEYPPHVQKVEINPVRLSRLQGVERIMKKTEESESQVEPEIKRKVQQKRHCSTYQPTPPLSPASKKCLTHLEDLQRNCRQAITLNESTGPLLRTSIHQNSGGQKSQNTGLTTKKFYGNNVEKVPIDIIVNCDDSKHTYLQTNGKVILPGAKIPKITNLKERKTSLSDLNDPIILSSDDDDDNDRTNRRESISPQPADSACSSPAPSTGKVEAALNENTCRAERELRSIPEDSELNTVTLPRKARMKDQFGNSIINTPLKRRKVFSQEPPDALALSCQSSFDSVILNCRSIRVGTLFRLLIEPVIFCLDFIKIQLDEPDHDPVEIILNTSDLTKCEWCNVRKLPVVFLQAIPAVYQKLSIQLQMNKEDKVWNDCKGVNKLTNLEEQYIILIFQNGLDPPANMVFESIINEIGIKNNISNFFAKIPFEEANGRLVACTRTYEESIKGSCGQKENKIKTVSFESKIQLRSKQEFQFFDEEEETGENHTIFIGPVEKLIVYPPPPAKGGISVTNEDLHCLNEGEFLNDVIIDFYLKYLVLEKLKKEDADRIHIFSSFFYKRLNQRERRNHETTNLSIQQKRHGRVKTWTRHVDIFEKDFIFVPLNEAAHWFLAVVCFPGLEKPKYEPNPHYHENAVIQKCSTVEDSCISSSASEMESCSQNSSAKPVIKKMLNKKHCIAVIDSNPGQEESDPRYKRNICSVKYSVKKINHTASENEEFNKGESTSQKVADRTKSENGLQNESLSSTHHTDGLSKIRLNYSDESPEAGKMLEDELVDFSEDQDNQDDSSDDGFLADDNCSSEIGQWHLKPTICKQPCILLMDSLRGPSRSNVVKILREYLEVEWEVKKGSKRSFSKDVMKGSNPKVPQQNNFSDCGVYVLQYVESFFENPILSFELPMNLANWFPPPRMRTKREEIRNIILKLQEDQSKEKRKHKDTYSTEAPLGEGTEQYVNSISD

Caspase-3 = target: T3, Caspase-3 (Homo sapiens, UniProt P42574);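 note: Dose-response selectivity test against caspase-3 for candidate inhibitors of sentrin-specific proteases (SENPs)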
T3 sequence (P42574 whole entry): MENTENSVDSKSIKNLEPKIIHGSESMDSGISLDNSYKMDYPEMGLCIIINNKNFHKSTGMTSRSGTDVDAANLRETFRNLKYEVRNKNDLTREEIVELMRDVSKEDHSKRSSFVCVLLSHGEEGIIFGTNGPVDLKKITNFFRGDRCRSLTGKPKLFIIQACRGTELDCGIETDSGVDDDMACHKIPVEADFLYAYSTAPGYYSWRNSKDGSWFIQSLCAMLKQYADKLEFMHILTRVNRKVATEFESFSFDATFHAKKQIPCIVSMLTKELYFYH

[3] = target: T4, Sentrin-specific protease 7 (Homo sapiens, UniProt Q9BQF6);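 note: Luminescence-based dose-response confirmation of ultra-high-throughput screening hits, measuring inhibition of SENP7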
T4 sequence (Q9BQF6 whole entry): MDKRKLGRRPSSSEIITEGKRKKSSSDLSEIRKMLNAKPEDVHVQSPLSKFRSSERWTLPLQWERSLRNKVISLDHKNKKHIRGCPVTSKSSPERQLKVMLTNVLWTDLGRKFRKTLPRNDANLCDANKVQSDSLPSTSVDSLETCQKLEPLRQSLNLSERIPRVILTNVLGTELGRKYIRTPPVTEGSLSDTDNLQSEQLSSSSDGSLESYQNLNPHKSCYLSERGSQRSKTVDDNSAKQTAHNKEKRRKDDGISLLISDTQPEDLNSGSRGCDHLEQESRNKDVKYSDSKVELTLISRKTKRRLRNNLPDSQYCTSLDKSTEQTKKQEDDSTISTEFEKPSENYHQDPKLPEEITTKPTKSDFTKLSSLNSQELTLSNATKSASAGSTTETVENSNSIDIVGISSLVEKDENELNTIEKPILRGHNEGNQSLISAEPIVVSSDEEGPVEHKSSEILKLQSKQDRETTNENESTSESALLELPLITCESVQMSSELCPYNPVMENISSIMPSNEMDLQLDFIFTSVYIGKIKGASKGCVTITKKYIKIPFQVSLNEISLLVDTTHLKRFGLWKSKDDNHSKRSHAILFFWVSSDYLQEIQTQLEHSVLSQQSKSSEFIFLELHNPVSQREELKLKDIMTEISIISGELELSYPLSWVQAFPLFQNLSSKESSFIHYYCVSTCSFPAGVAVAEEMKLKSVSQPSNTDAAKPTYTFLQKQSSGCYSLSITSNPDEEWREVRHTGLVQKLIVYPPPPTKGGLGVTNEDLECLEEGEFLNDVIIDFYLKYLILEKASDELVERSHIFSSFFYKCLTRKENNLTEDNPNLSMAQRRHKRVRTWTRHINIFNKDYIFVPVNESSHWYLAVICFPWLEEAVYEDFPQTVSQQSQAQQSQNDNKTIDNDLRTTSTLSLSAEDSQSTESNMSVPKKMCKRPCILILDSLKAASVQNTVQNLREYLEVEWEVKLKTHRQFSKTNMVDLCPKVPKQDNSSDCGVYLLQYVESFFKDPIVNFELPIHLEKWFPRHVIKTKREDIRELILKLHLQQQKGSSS

[4] = target: Calcium/calmodulin-dependent protein kinase type II subunit alpha (Homo sapiens, UniProt Q9UQM7); assay: Navigating the Kinome. Panel member name: CAMK2A
[5] = target: Cyclin-dependent kinase 7 (Homo sapiens, UniProt P50613);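 note: value comes from a kinome-wide kinase profiling panel in which CDK7 is one member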
[6] = target: Hepatocyte growth factor receptor (Homo sapiens, UniProt P08581);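 note: kinase panel profiling across the kinome, with MET as the panel member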
[7] = target: Dual specificity protein kinase CLK2 (Homo sapiens, UniProt P49760)
[8] = target: Receptor-type tyrosine-protein kinase FLT3 (Homo sapiens, UniProt P36888);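 note: FLT3 was tested as one member of a kinome-wide kinase panel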
[9] = nonselective inhibitors of cellular cAMP signaling, dose response, counter-screen for MC4R biased antagonist project, cell-based, TR-FRET cAMP detection (AID 602305);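 note: U2OS cells stimulated with forskolin near its EC80 as the cAMP inducer; potency is for inhibition of forskolin-stimulated cAMP signaling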

Sequence of Receptor-type tyrosine-protein kinase FLT3 (P36888 whole entry): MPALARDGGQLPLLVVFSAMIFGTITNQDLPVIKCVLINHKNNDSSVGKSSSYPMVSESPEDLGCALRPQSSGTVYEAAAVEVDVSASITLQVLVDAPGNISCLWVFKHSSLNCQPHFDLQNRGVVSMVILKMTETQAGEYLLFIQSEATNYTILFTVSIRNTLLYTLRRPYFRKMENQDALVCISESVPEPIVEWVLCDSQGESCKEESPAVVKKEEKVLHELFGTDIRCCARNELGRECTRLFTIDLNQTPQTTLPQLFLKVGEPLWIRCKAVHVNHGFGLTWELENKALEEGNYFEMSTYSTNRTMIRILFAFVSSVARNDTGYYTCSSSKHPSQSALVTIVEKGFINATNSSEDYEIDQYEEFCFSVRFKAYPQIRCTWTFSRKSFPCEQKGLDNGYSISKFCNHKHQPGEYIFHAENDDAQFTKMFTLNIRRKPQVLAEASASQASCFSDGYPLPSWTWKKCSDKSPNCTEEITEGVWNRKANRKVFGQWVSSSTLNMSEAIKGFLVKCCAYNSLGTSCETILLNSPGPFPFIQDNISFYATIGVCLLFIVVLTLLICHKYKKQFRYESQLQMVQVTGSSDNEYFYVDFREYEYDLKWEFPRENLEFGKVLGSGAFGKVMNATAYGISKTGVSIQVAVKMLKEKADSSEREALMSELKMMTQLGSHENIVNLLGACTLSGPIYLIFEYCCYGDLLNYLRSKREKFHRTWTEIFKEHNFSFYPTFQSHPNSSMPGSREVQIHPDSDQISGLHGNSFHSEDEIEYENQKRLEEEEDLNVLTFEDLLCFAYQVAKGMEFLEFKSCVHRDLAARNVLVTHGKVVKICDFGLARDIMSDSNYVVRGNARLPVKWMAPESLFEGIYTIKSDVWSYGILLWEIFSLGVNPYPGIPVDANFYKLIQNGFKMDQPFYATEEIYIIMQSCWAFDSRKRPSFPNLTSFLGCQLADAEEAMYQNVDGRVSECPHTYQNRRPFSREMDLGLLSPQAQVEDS
Sequence of Cyclin-dependent kinase 7 (P50613 whole entry): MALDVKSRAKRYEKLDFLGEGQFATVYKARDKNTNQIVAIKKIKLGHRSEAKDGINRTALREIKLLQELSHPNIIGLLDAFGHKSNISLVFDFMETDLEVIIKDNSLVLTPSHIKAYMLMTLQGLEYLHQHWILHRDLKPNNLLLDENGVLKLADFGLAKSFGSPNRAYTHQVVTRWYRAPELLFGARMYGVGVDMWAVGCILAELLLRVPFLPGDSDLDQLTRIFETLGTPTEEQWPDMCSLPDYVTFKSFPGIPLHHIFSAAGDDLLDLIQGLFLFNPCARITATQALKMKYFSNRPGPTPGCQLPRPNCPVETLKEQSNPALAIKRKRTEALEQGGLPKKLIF
Sequence of Dual specificity protein kinase CLK2 (P49760 whole entry): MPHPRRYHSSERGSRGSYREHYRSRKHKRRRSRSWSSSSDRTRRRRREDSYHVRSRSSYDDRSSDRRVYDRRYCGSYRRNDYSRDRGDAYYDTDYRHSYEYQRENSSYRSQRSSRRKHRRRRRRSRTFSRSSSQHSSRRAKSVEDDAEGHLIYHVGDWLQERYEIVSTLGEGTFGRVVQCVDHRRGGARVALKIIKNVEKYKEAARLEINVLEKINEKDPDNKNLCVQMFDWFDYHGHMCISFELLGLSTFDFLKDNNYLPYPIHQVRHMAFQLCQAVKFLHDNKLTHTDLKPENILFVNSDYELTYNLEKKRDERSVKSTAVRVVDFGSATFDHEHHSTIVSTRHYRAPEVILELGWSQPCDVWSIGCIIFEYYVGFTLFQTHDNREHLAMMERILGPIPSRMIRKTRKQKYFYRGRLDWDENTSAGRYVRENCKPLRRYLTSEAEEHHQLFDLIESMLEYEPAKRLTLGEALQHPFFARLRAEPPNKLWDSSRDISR
Sequence of Hepatocyte growth factor receptor (P08581 whole entry): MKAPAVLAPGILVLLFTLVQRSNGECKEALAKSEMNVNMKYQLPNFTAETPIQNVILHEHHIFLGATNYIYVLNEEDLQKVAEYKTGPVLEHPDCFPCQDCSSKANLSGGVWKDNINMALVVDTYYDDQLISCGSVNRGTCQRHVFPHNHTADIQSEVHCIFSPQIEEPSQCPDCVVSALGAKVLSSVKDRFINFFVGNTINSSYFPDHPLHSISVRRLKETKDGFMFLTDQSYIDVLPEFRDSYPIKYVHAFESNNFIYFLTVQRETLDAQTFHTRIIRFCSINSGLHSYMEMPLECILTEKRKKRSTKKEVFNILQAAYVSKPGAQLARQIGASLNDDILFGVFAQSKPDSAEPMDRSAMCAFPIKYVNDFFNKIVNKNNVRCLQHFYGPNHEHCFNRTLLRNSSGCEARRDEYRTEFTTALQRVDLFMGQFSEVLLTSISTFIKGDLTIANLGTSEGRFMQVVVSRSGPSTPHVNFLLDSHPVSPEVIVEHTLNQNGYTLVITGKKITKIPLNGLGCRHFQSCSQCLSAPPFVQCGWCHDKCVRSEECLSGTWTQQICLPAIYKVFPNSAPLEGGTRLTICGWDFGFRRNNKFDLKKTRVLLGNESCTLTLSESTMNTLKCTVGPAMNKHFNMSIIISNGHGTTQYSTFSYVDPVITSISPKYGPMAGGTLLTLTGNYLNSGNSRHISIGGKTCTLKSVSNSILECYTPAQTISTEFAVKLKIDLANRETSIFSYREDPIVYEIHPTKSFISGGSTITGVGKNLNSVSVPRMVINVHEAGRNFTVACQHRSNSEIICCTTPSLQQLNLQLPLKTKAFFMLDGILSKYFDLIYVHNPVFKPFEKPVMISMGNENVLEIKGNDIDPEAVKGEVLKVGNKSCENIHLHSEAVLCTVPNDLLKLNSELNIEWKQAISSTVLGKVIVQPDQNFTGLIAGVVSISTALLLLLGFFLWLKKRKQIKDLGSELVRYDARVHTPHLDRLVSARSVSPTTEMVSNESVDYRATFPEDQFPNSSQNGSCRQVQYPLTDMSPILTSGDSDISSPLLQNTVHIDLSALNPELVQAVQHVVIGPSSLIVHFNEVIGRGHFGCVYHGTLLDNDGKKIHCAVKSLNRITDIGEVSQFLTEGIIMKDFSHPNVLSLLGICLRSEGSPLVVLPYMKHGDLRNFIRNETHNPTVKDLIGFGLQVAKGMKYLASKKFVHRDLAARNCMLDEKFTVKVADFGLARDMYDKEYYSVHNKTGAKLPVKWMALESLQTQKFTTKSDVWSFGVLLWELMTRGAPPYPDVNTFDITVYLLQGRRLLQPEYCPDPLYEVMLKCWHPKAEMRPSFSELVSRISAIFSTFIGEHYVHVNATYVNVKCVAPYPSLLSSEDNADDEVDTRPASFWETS
Sequence of Calcium/calmodulin-dependent protein kinase type II subunit alpha (Q9UQM7 whole entry): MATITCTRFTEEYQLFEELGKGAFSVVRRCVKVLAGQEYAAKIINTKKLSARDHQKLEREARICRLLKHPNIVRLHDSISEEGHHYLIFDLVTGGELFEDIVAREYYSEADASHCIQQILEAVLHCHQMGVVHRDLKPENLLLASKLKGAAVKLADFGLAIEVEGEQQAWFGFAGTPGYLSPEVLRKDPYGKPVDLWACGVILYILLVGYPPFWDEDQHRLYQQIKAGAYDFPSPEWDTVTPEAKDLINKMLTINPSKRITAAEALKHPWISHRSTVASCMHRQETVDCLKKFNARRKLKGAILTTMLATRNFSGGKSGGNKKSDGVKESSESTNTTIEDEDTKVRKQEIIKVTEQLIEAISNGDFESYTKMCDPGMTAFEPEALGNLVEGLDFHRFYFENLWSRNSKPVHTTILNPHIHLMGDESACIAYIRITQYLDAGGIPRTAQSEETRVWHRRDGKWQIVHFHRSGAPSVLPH

Compound | IC50 [1] | IC50 [2] | IC50 (Caspase-3) | IC50 [3] | Ki [4] | Ki [5] | Ki [6] | Ki [7] | Ki [8] | IC50 [9]
Cc1ccc(NC(=O)COc2cccc(/C=C3\SC(=S)N(CCC(=O)O)C3=O)c2)cc1Cl | 3.14 µM (active) | > 100 µM (inactive) | 70 µM (active) | 18.3 µM (active) | – | – | – | – | – | –
COc1cccc(C(C)NC(=O)c2ccc(-c3ccncc3)s2)c1 (centres undefined) | – | – | – | – | > 3.98 µM (inactive) | > 3.98 µM (inactive) | > 2.51 µM (inactive) | > 3.98 µM (inactive) | > 3.16 µM (inactive) | –
O=Nc1c(-c2c(O)[nH]c3cc(Br)ccc23)[nH]c2ccccc12 | > 100 µM (inactive) | > 100 µM (inactive) | 64.3 µM (active) | 5.6 µM (active) | – | – | – | – | – | > 64.6 µM (inactive)
